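All cell lines were grown in 96-well plates and treated with compound for 48 hours. GI50 is the concentration that inhibits growth by half.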 Calls of active or inactive are those of the source. Rule as the data show it: active = GI50 up to about 1.1 µM and inactive = higher.
Assays:
Test in all cases: NCI tumour cell line growth inhibition, 48 h
[1] = tested on: DMS-273
[2] = tested on: KM-20L2
[3] = tested on: DMS-114
[4] = tested on: M19-MEL
[5] = tested on: SNB-78
[6] = tested on: DLD-1
[7] = tested on: XF498
[8] = tested on: HOP-18
[9] = tested on: RXF 631

Structure (SMILES)	GI50 [1]	GI50 [2]	GI50 [3]	GI50 [4]	GI50 [5]	GI50 [6]	GI50 [7]	GI50 [8]	GI50 [9]
NCCOCCOCC(=O)O	> 100 µM (inactive)	> 100 µM (inactive)	> 100 µM (inactive)	> 100 µM (inactive)	> 100 µM (inactive)				
C=C1C2C[C@@H]3OC4CC5O[C@]6(CC5OC4C(C)C3OC(=O)CC3CC[C@@H]4OC5C7OC8C[C@](CCC9CC(=C)[C@H](CCC(C[C@H]1C)O2)O9)(OC7C4O3)O[C@@H]85)C[C@@H]1O[C@@]2(CC(C)[C@@H]3OC(CC(=O)CCO)C(O)C[C@@H]3O2)CC(C)[C@@H]1O6 (some centres undefined)	< 0.001 µM (active)	< 0.001 µM (active)			0.00157 µM (active)	< 0.001 µM (active)	< 0.001 µM (active)		
O=C(CO)CC(=O)C(=O)Nc1ccccc1	> 100 µM (inactive)	> 100 µM (inactive)	> 100 µM (inactive)	> 100 µM (inactive)	> 100 µM (inactive)	> 100 µM (inactive)		> 100 µM (inactive)	46 µM (inactive)
CN1/C(=N\c2ccccc2)S/C1=N/c1ccccc1	87.3 µM (inactive)		23.6 µM (inactive)	21.8 µM (inactive)	> 100 µM (inactive)	23.4 µM (inactive)	9.57 µM (inactive)	69 µM (inactive)	
CCCCCCCCCC1CC(=O)Oc2cccc(O)c21 (centres undefined)	4.03 µM (inactive)	31.3 µM (inactive)	15.7 µM (inactive)	31.3 µM (inactive)	42 µM (inactive)	27.9 µM (inactive)	21.6 µM (inactive)	51.4 µM (inactive)	0.617 µM (active)
O=C(CCC(=O)Nc1ccc(Cl)c(Cl)c1)CC(=O)c1ccc(F)cc1	> 100 µM (inactive)	> 100 µM (inactive)	> 100 µM (inactive)	> 100 µM (inactive)	> 100 µM (inactive)	> 100 µM (inactive)		> 100 µM (inactive)	> 100 µM (inactive)
O=C1CCC(=O)N1Cc1ccccc1/N=[N+](\[O-])c1ccccc1CN1C(=O)CCC1=O	> 100 µM (inactive)	> 100 µM (inactive)	> 100 µM (inactive)	> 100 µM (inactive)	> 100 µM (inactive)		> 100 µM (inactive)		
O=C1C2Cc3ccccc3CN2C(=O)N1CCN1CCCC1 (centres undefined)	> 100 µM (inactive)	> 100 µM (inactive)	> 100 µM (inactive)	> 100 µM (inactive)		> 100 µM (inactive)	> 100 µM (inactive)		> 100 µM (inactive)
O=[N+]([O-])c1cc(Cl)ccc1S(=O)(=O)c1ccc(Cl)cc1[N+](=O)[O-]	14.2 µM (inactive)	16.7 µM (inactive)	11.3 µM (inactive)	15 µM (inactive)	16.1 µM (inactive)	15.6 µM (inactive)		16.7 µM (inactive)	
O=c1/c(=C/c2ccc3c(c2)OCO3)sc2nnc(-c3ccco3)n12	> 100 µM (inactive)	> 100 µM (inactive)	> 100 µM (inactive)	> 100 µM (inactive)	> 100 µM (inactive)	> 100 µM (inactive)	> 100 µM (inactive)	> 100 µM (inactive)	
CSc1nc(C)cc(=O)n1C1OC(COC(C)=O)C(OC(C)=O)C(OC(C)=O)C1OC(C)=O (centres undefined)	> 100 µM (inactive)	> 100 µM (inactive)	> 100 µM (inactive)	> 100 µM (inactive)		> 100 µM (inactive)	> 100 µM (inactive)		
COc1cc(/C=C/C(=N\NC(=O)c2ccccc2)c2sc(Nc3ccc(Cl)c(Cl)c3)nc2C)ccc1O		33.4 µM (inactive)	23.8 µM (inactive)	28.2 µM (inactive)	29.3 µM (inactive)	28.7 µM (inactive)	32.9 µM (inactive)	24.1 µM (inactive)	20.6 µM (inactive)
Cc1nnc(N/N=C(/C(=O)C(C#N)c2ccc(Cl)cc2)C(C#N)c2ccc(Cl)cc2)n1N (centres undefined)	19 µM (inactive)	20.3 µM (inactive)	15.7 µM (inactive)		24.1 µM (inactive)	20.1 µM (inactive)	28.8 µM (inactive)	16.4 µM (inactive)	19.8 µM (inactive)
COc1ccc(C[P+]2(c3ccccc3)CCCCC2)cc1.O=[N+]([O-])c1ccc(C[P+]2(c3ccccc3)CCCCC2)cc1.[O-][Cl+3]([O-])([O-])[O-].[O-][Cl+3]([O-])([O-])[O-]	60 µM (inactive)		36.1 µM (inactive)			> 100 µM (inactive)	> 100 µM (inactive)	15.4 µM (inactive)	> 100 µM (inactive)
Brc1ccc(-c2nnc(-c3nn(-c4ccccc4)c4nc5ccccc5nc34)o2)cc1	81.3 µM (inactive)	> 100 µM (inactive)	26.7 µM (inactive)		> 100 µM (inactive)	> 100 µM (inactive)		> 100 µM (inactive)	> 100 µM (inactive)
CCCCCCCCCCCCCCCC(=O)OCC1OC(n2cc(F)c(=O)[nH]c2=O)C(NC(=O)OCc2ccccc2)C(O)C1O (centres undefined)	16.8 µM (inactive)	22.3 µM (inactive)	14 µM (inactive)	20.3 µM (inactive)	20.6 µM (inactive)		16.3 µM (inactive)	16.8 µM (inactive)	18.3 µM (inactive)
C[C@]12CC=CC(=O)[C@@]1(C)CCC(=O)C2	> 100 µM (inactive)		> 100 µM (inactive)	> 100 µM (inactive)	> 100 µM (inactive)	> 100 µM (inactive)	75.7 µM (inactive)		> 100 µM (inactive)
CCOC(=O)C1(C)CCC(C(=O)OC)C1=O (centres undefined)		> 100 µM (inactive)	19.8 µM (inactive)	73.3 µM (inactive)	> 100 µM (inactive)	57.4 µM (inactive)	> 100 µM (inactive)	> 100 µM (inactive)	
CC1(C)NC(=O)N(CCCCCCN2C(=O)NC(C)(C)C2=O)C1=O	> 100 µM (inactive)	> 100 µM (inactive)	> 100 µM (inactive)	> 100 µM (inactive)	> 100 µM (inactive)	> 100 µM (inactive)		> 100 µM (inactive)	
C=CCCC(O)c1cc(C)c(O)c(C)c1 (centres undefined)		> 100 µM (inactive)	> 100 µM (inactive)	> 100 µM (inactive)	> 100 µM (inactive)			> 100 µM (inactive)	
COc1ccc(/C=C/CO)cc1OC	> 100 µM (inactive)	> 100 µM (inactive)	> 100 µM (inactive)	> 100 µM (inactive)	> 100 µM (inactive)				
Cc1n(-c2ccccc2)c2c([n+]1Cc1ccc([N+](=O)[O-])cc1)C(=O)c1ccccc1C2=O	1.92 µM (inactive)	3.23 µM (inactive)	0.386 µM (active)	1.16 µM (inactive)	2.88 µM (inactive)	5.43 µM (inactive)		7.19 µM (inactive)	
Clc1ccc2c(c1)C1C(CO2)C(c2ccccc2)=NN1c1ccccc1 (centres undefined)	28.7 µM (inactive)	79.6 µM (inactive)	24.6 µM (inactive)	26.5 µM (inactive)	29.9 µM (inactive)	35.1 µM (inactive)	14.9 µM (inactive)	1.07 µM (active)	

Reference: ChEMBL document CHEMBL1201862, “PubChem BioAssay data set” (2004)
